Results on 19 compounds are retold here after US5310916A, “Trifunctional agents useful as irreversible inhibitors of A1-adenosine receptors” (The United States of America as represented by the …, priority 1990, dated 1994).

SMILES strings stand for the structures. ≈ marks a conversion by molar mass, not a printed value.

In data set [1] the target is T1, A1-adenosine receptors (Rattus norvegicus, UniProt P25099).
T1 construct: adenosine receptors in rat cerebral cortex membranes was assayed as described; from tissue; b141 says rat striatum
T1 sequence (P25099 1-326): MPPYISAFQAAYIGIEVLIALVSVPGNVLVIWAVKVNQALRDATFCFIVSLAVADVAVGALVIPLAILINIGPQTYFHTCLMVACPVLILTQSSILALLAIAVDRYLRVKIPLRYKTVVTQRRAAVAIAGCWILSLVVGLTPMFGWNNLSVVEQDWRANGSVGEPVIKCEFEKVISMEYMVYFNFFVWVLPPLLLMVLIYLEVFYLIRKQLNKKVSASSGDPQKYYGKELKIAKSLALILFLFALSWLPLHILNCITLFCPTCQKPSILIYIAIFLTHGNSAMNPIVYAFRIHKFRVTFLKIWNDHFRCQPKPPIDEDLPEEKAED
In words: Competitive binding assay at A1 receptors ([3H]RPIA). Particulars: for Ki: [3H]RPIA, rat brain membranes, read-out: Ki at central rat receptors, A1; for A2/A1 ratio: ratio of Ki values A2/A1. How it is done: Table 4 also indicates the synthesis method used for each compound therein.
(§1) A1 ligand = [^3 H]RPIA, A2 ligand = [^3 H]CGS21680
(§2) Inhibition of binding by a range of concentrations of an adenosine derivative was assessed in triplicate in at least three separate experiments. At least seven different concentrations spanning three orders of magnitude, adjusted appropriate for the IC50 of each compound were used. IC50 values Ci/mmol) or [^3 H]CGS21680. Inhibition of [^3 H]NECA binding of to A2 -adenosine receptors in rat striatal membranes were measured as described, except that 5 mM theophylline was used to define non-specific binding. N^6 -Cyclopentyladenosine was present at 50 nM to inhibit binding of the ligand at A1 -adenosine receptors. IC50 values were converted to Ki -values as described.

In a further data set the target is T2, A2-adenosine receptors (Rattus norvegicus, UniProt P30543).
T2 construct: adenosine receptors in rat striatal membranes were measured as described; from tissue; host or cells: rat striatal membranes
T2 sequence (P30543 whole entry): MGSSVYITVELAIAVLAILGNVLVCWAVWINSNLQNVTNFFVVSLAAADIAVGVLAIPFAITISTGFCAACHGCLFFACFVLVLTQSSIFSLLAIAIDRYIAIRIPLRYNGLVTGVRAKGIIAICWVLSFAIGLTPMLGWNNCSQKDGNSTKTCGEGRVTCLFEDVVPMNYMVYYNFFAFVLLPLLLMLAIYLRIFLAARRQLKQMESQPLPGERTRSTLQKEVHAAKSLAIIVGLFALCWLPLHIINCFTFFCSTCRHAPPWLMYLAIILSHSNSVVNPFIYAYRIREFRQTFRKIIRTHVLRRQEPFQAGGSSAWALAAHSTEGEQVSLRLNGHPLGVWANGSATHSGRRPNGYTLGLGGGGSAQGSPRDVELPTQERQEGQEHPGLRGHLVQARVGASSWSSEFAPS
In words: Competitive binding assay at A2 receptors ([3H]CGS21680). The note with it: [3H]CGS21680, rat striatum; read-out: Ki at central rat receptors, A2. How it is done: The Ki values (in nM) for A1 and A2 binding in rat striatum are presented in Table 4 with the relative selectivities expressed as the ratio of Ki values. […] Table 4 also indicates the synthesis method used for each compound therein.
as §1, §2

Data set [2] in a line: Solubility of analogs in pH 7.2 phosphate buffer. Format: physicochemical. The note with it: aqueous buffer; pH 7.2 phosphate buffer with DMSO, 2-3 h room temperature, absorbance at 310 nm, mean of 3. How it is done: The method for determining the solubilities of the xanthines is detailed in the Experimental Section below.
Solubility of Analogs. To 675 uL of pH 7.2 phosphate buffer was added 25 uL of a DMSO solution (approx. 10 mM) of the xanthine to be assayed. This was stirred for one minutes by a vortex mixer then left at room temperature for 2-3 hours. In each case (except where noted) a fine precipitate resulted which was collected by centrifugation at the end of the waiting period. After the dissolution period, a 100 uL aliquot of the supernatant was added to 1.0 mL of methanol and the absorbance measured at 310 nm using an extinction coefficient of 28,180 for calculating the concentration. Each xanthine was assayed 3 times and the concentration represent the averages of these 3 determinations.

Data set [3] addresses T1, A1-adenosine receptors. Format: binding. Particulars: 0.75 h; for inhibition at 0.02 µM: 20 nM. How it is done:
The degree of irreversible binding was determined as previously described and the percent inhibition of selected compounds is presented in Table 5.
Irreversible Binding to Rat Brain. For studies of irreversible incorporation, membranes were prepared as described above and then incubated with the indicated (Tables I and II) concentration of ligand for 45 minutes at 37° C. […] Membranes were then suspended in Buffer A containing 10^-4 M 3-isobutyl-1-methylxanthine (IBMX) and incubated at 25° C. for 18 hours with shaking. Membranes were then washed twice with Buffer A, treated with adenosine deaminase as described above, and used in radioligand binding studies as described above.
The long treatment with IBMX was found necessary to remove all of the non-incorporated ligands from membranes. Multiple washes (up to 8) with buffer alone were insufficient to remove all the reversibly bound ligands.

A further data set concerns the target rat brain A1-receptors. Particulars: prior work; cited from earlier work.

Consider `CCCn1c(=O)c2[nH]c(-c3ccc(OCC(=O)NCCNC(=S)Nc4cc(N=C=S)cc(C(=O)OC(=O)c5cc(N=C=S)cc(N=C=S)c5)c4)cc3)nc2n(CCC)c1=O`, for which, at A1-adenosine receptors [1], the Ki (usually a dissociation constant, usually derived from enzyme kinetics or from competition with a known ligand) came to 45 ± 3.5 nM and the A2/A1 ratio was determined as 11. At A2-adenosine receptors, the inhibitory constant (Ki) turned out to be 493 ± 200 nM.
In the same order, the values of `CCCn1c(=O)c2[nH]c(-c3ccc(OCC(=O)NCCNC(=S)Nc4cc(N=C=S)cc(NC(=S)NCC(=O)OC(C)(C)C)c4)cc3)nc2n(CCC)c1=O` are 8.3 ± 2.2 nM, 397 and 3290 nM.
Turning to `CCCn1c(=O)c2[nH]c(-c3ccc(OCC(=O)NCCNC(=S)Nc4cc(N=C=S)cc(NC(=S)NCCNc5ccc(N=[N+]=[N-])cc5[N+](=O)[O-])c4)cc3)nc2n(CCC)c1=O`, on A1-adenosine receptors [1], the inhibition constant Ki worked out at 27.3 ± 7.2 nM and the A2/A1 ratio amounted to 31. The Ki on A2-adenosine receptors is 842 nM.
For `CCCn1c(=O)c2[nH]c(-c3ccc(OCC(=O)NCCNC(=S)Nc4cc(N=C=S)cc(NC(=S)NCCNC(=O)c5ccc(N=[N+]=[N-])cc5O)c4)cc3)nc2n(CCC)c1=O`, in that order: 25.2 nM, 14 and 341 nM.
`CCCn1c(=O)c2[nH]c(-c3ccc(OCC(=O)NCCNC(=S)Nc4cccc(N=C=S)n4)cc3)nc2n(CCC)c1=O` [Compound 8, 1,3-Dipropyl-8-(4-(((((2-((((6-isothiocyanatopyrido)amino)thiocarbonyl)amino)ethyl)amino)carbonyl)methyl)oxy)phenyl)xanthine]: in data set [2], the solubility (as a rule, how much of the substance goes into solution per volume) was 17.5 ± 0.06 µM (≈ 10.9 µg/mL). For the same compound, on A1-adenosine receptors [1], the Ki came to 16.2 ± 1.96 nM and the A2/A1 ratio is on record as 27. Also, on A2-adenosine receptors, the Ki is 432 ± 20 nM.
In the same order, the values of `CCCn1c(=O)c2[nH]c(-c3ccc(OCC(=O)NCCNC(=S)Nc4cc(CO)cc(N=C=S)c4)cc3)nc2n(CCC)c1=O` [Compound 9, 1,3-Dipropyl-8-(4-(((((2-((((3-hydroxymethyl-5-isothiocyanatophenyl)amino)thiocarbonyl)amino)ethyl)amino)carbonyl)methyl)oxyl)phenyl)xanthine] are 10.8 ± 0.03 µM (≈ 7.03 µg/mL), 13.4 ± 2.64 nM, 32 and 433 ± 45 nM.
For the compound `CCCn1c(=O)c2[nH]c(-c3ccc(OCC(=O)NCCNC(=S)Nc4cc(N=C=S)cc(C(=O)OCC)c4)cc3)nc2n(CCC)c1=O` [Compound 11, 1,3-Dipropyl-8-(4-(((((2-((((3-carbethoxy-5-isothiocyanatophenyl)amino)thiocarbonyl)amino)ethyl)amino)carbonyl)methyl)oxyl)phenyl)xanthine], the solubility in data set [2] turned out to be 9.33 ± 0.43 µM (≈ 6.46 µg/mL). At A1-adenosine receptors [1], the inhibition constant (Ki) turned out to be 41.6 ± 8.2 nM and the A2/A1 ratio turned out to be 19. For the same compound, the Ki at A2-adenosine receptors was determined as 815 ± 145 nM.
In data set [2], `CCCn1c(=O)c2[nH]c(-c3ccc(OCC(=O)NCCNC(=S)Nc4cc(N=C=S)cc(C(N)=O)c4)cc3)nc2n(CCC)c1=O` [Compound 13, 1,3-Dipropyl-8-(4-(((((2-((((3-carboxamide-5-isothiocyanatophenyl)amino)thiocarbonyl)amino)ethyl)amino)carbonyl)methyl)oxy)phenyl)xanthine] came in with a solubility of 31.4 ± 0.39 µM (≈ 20.8 µg/mL). Besides, at A1-adenosine receptors [3] (5 nM), the inhibition – broadly, the share of the control response that was lost under treatment – at 0.005 µM came out at 68 ± 7.5%. The same compound yielded an inhibition at 0.02 µM against A1-adenosine receptors [3] of 90.3 ± 7%. Further, on A1-adenosine receptors [1], the inhibition constant Ki came to 9.47 ± 2.99 nM and the A2/A1 ratio amounted to 39. For the same compound, on A2-adenosine receptors, the Ki was 365 ± 35 nM.
In data set [2], `CCCn1c(=O)c2[nH]c(-c3ccc(OCC(=O)NCCNC(=S)Nc4cc(N=C=S)cc(C(=O)NCCN(C)C)c4)cc3)nc2n(CCC)c1=O` [Compound 14, 1,3-Dipropyl-8-(4-(((((2-((((3-(2-dimethylaminoethylcarboxamide)-5-isothiocyanatophenyl)amino)thiocarbonyl)amino)ethyl)amino)carbonyl)methyl)oxy)phenyl)xanthine] returned a solubility of 28.7 ± 0.03 µM (≈ 21.1 µg/mL). At A1-adenosine receptors [3], the inhibition at 0.02 µM came out at 30 ± 8.7%. The inhibition at 0.05 µM at A1-adenosine receptors [3] (50 nM) was 46.3 ± 21.8%. Besides, on A1-adenosine receptors [1], the inhibitory constant (Ki) is 7.62 ± 2.19 nM and the A2/A1 ratio worked out at 65. Also, on A2-adenosine receptors, the inhibitory constant (Ki) came to 497 ± 74 nM.
For the compound `CCCn1c(=O)c2[nH]c(-c3ccc(OCC(=O)NCCNC(=S)Nc4cc(N=C=S)cc(C(=O)NCCNC(C)=O)c4)cc3)nc2n(CCC)c1=O` [Compound 16, 1,3-Dipropyl-8-(4-(((((2-((((3-(2-acetylaminoethylcarboxamide)-5-isothiocyanatophenyl)amino)thiocarbonyl)amino)ethyl)amino)carbonyl)methyl)oxy)phenyl)xanthine], in data set [2], the solubility is over 1000 µM. The Ki at A1-adenosine receptors [1] came out at 7.01 ± 0.52 nM; on A2-adenosine receptors, 247 ± 36 nM. For the same compound, at A1-adenosine receptors [1], the A2/A1 ratio was 35.
As to `CCCn1c(=O)c2[nH]c(-c3ccc(OCC(=O)NCCNC(=S)Nc4cc(N=C=S)cc(C(=O)NCCNC(=O)CCc5ccc(O)cc5)c4)cc3)nc2n(CCC)c1=O` [Compound 17], on A1-adenosine receptors [1], the Ki was found to be 7.08 ± 1.91 nM and the A2/A1 ratio turned out to be 198. Moreover, the Ki at A2-adenosine receptors was determined as 1400 nM.
In the same order, the values of `CCCn1c(=O)c2[nH]c(-c3ccc(OCC(=O)NCCNC(=S)Nc4cc(N=C=S)cc(N=C=S)c4)cc3)nc2n(CCC)c1=O` [Compound 23, 1,3-Dipropyl-8-(4-(((((2-((((3,5-diisothiocyanatophenyl)amino)thiocarbonyl)amino)ethyl)amino)carbonyl)methyl)oxy)phenyl)-xanthine] are 3.96 ± 0.59 nM, 894 and 3540 ± 936 nM.
As for `CCCn1c(=O)c2[nH]c(-c3ccc(OCC(=O)NCCNC(=S)Nc4cc(N=C=S)cc(NC(=S)NCCN(C)C)c4)cc3)nc2n(CCC)c1=O` [Compound 24], the Ki on A1-adenosine receptors [1] was 77.2 ± 2.5 nM; at A2-adenosine receptors, 1910 ± 303 nM. Moreover, the A2/A1 ratio on A1-adenosine receptors [1] came to 25.
In data set [2], `CCCn1c(=O)c2[nH]c(-c3ccc(OCC(=O)NCCNC(=S)Nc4cc(N=C=S)cc(NC(=S)NCCNC(C)=O)c4)cc3)nc2n(CCC)c1=O` [Compound 25] yielded a solubility of over 100 µM. On A1-adenosine receptors [1], the Ki turned out to be 57.6 ± 15.7 nM and the A2/A1 ratio is listed as 44. Also, on A2-adenosine receptors, the Ki came out at 2540 ± 283 nM.
Consider `CCCn1c(=O)c2[nH]c(-c3ccc(OCC(=O)NCCNC(=S)Nc4cc(N=C=S)cc(C(=O)NCCNc5ccc([N+](=O)[O-])c6nonc56)c4)cc3)nc2n(CCC)c1=O` [R' = CONH(CH2)2 NH-NBD], for which, at A1-adenosine receptors [1], the Ki is 18.1 nM and the A2/A1 ratio came to 73. At A2-adenosine receptors, the Ki stood at 1330 nM.
In the same order, the values of `CCCn1c(=O)c2[nH]c(-c3ccc(OCC(=O)NCCNC(=S)Nc4cc(N=C=S)cc(C(=O)NCCNC(=O)CCCC[C@@H]5SC[C@@H]6NC(=O)N[C@@H]65)c4)cc3)nc2n(CCC)c1=O` [R' = CONH(CH2)2 NHCO-biotin] are 20.1 ± 3.3 nM, 572 and 11500 nM.
In the same order, the values of `CCCn1c(=O)c2[nH]c(-c3ccc(OCC(=O)NCCNC(=S)Nc4cc(N=C=S)cc(C(=O)NCCNC(=O)CBr)c4)cc3)nc2n(CCC)c1=O` [R' = CONH(CH2)2 NHCOCH2 Br] are 15.8 nM, 44 and 688 nM.
On to `CCCn1c(=O)c2[nH]c(-c3ccc(OCC(=O)NCCNC(=S)Nc4cc(N=C=S)cc(NC(=S)NCCNC(=S)Nc5ccc(C(=O)O)c(-c6c7ccc(=O)cc-7oc7cc(O)ccc67)c5)c4)cc3)nc2n(CCC)c1=O` [R' = NHCSNH(CH2)2 NHCSNH-fluorescein], for which, at A1-adenosine receptors [1], the Ki turned out to be 234 ± 32.5 nM and the A2/A1 ratio was found to be 8. Moreover, the Ki at A2-adenosine receptors was 1790 nM.
On to `CCCn1c(=O)c2[nH]c(-c3ccc(OCC(=O)NCCN)cc3)nc2n(CCC)c1=O` [XAC, 8-[4-[[[[(2-aminoethyl)-amino]carbonyl]methyl]oxy]phenyl]-1,3-dipropylxanthine], for which, on rat brain A1-receptors, the Ki was 1.2 nM.
